From patent US6180634A, “Combination therapy for the treatment of AIDS” (priority 1998, dated 2001)
Like-named read-outs stand apart in the source and are kept apart here.

What was measured:
wild-type HIV-1 = assay: microbe, parasite or virus in culture; assay type: cell-based
[1] = administration to humans, plasma concentrations (general statements); assay type: in vivo, human
Text: Compound (b) is preferably selected from the group consisting of Indinavir, Ritonavir, and pharmaceutically acceptable salts thereof, and is most preferably Indinavir or a pharmaceutically acceptable salt or ester thereof. Particularly preferred is the composition in which (a) is the sulfate salt of Compound A and (b) is the sulfate salt of Indinavir. It has been discovered that the foregoing compounds of (b), when employed in combination with Compound A, can increase the plasma concentration of Compound A to a level having substantial antiviral activity.

[2] = Pharmacokinetic Study of Compound A in Healthy Human Males (Example 10); assay type: in vivo; conditions: 20 mg single oral dose, suspension, fasted
Method: A double-blind, single-rising dose, alternating two-panel, four-period, placebo-controlled study was conducted for Compound A in healthy adult males in the fasted state. Single doses of 20, 50, 100, 200, 400, 800 and 1200 mg of Compound A, or placebo, were administered as an oral suspension of the sulfate salt form of Compound A in sterile water. Each subject received increasing single oral doses of Compound A or placebo during each of the four treatment periods in alternate panels. Panel A dosage levels were 20, 100, 400 mg, and 400 mg with food. Panel B dosage levels were 50, 200, 800 and 1200 mg. For each period, 6 subjects received Compound A and 2 subjects received placebo as allocated by a randomized schedule. In Panel A, subjects who received 400 mg of Compound A also received 400 mg of Compound A with food. The safety of the subjects was monitored prior and subsequent to dosing by clinical adverse event reporting, measurement of vital signs, physical examinations, blood and urine laboratory safety tests, and ECGs. Plasma concentrations of Compound A were determined predose and at 0.5, 1, 1.5, 2, 3, 4, 6, 10, 12, 24, 32 and 48 hours following each single dose in each period, using a reverse-phase HPLC column switching method with fluorescence detection.

[3] = Pharmacokinetic Study of Compound A Alone and in Combination with Indinavir in Healthy Human Males (Example 11); assay type: in vivo
Method: A double-blind, single-rising dose, alternating two-panel, four-period, placebo-controlled study was conducted for Compound A alone and in combination with Indinavir in healthy adult males in the fasted state. […] All of the doses of Compound A were administered as the sulfate salt form of Compound A. All of the Compound A doses were oral suspensions of the sulfate salt form in sterile water, except that the 600-mg doses administered to Panel B in the fourth period were tablets. Indinavir was administered in the form of CRIXIVAN® capsules. The safety of the subjects was monitored prior and subsequent to dosing by clinical adverse event reporting, measurement of vital signs, physical examinations, blood and urine laboratory safety tests, and ECGs. Plasma concentrations of Compound A were determined predose and at 0.5, 1, 1.5, 2, 3, 4, 6, 8, 12, 16, 20, 24, 30, 36 and 48 hours following each single dose in each period, using a reverse-phase HPLC column switching method with fluorescence detection.

[4] = Pharmacokinetic Study in Healthy Human Males of Compound A in Combination with Indinavir with and without Fasting (Example 12); assay type: in vivo; conditions: co-administered with Indinavir, with food vs without food
Method: All of the subjects received the regimen once in the fasted state and once with a high-fat breakfast. The two single-dose treatments (fasted, fed) were administered in randomized crossover fashion, separated by one week. For treatments with food a breakfast consisting of two eggs, two strips of bacon, toast with two pats of butter (2×12.5 g), 120 g of fried potatoes and 240 ml of whole milk were consumed in no more than 15 minutes, and the test medication was administered within 5 minutes after completion of the breakfast.
All of the doses of Compound A were administered as the sulfate salt form of Compound A. All of the Compound A doses were tablets containing 200 mg of Compound A. Other ingredients in the tablets included microcrystalline cellulose (Avicel PH 101), mannitol SD 200, croscarmellose sodium, hydroxypropyl cellulose and magnesium stearate. […]
The safety of the subjects was monitored prior and subsequent to dosing by clinical adverse event reporting, measurement of vital signs, physical examinations, blood and urine laboratory safety tests, and ECGs. Plasma concentrations of Compound A were determined predose and at 0.5, 1, 1.5, 2, 3, 4, 6, 8, 12, 16, 20, 24, 30, 36 and 48 hours following each single dose in each period, using a reverse-phase HPLC column switching method with fluorescence detection.

[5] = Compound A in combination with Indinavir
[6] = 200 mg Compound A + 800 mg Indinavir relative to 200 mg Compound A alone

Row | Structure (SMILES) | IC95 (wild-type HIV-1; Human immunodeficiency virus 1, read-out: CIC95) [nM] | IC95 (wild-type HIV-1; Human immunodeficiency virus 1, wild-type HIV-1, Cell Spread Assay, read-out: CIC95) [nM] | potency relative to Indinavir (wild-type HIV-1; wild type HIV-1, in vitro) | effect of Indinavir on inter-individual variation of Compound A plasma concentrations [1, 5] | effect of Indinavir on plasma concentrations of Compound A [1, 5] | inter-individual variation in the plasma levels ([1]; humans, Compound A alone, vs Indinavir) | plasma concentration increase with successively higher doses ([1]; humans, dose proportionality) | plasma concentrations of Compound A ([1]; humans, relative to comparable doses of Indinavir) | plasma concentrations [2] | AUC increase (times higher) [3, 6] | C8 hrs increase (times higher) [3, 6] [×] | Cmax increase (times higher) [3, 6] | AUC increase (fold higher) ([3]; 600 mg Compound A + 800 mg Indinavir relative to Compound A alone) | Compound A plasma levels, fed versus fasted [4]
1 | CC(C)(C)NC(=O)[C@@H]1CN(Cc2cccnc2)CCN1C[C@@H](O)C[C@@H](Cc1ccccc1)C(=O)N[C@H]1c2ccccc2C[C@H]1O [Indinavir, N-(2(R)-hydroxy-1(S)-indanyl)2(R)-phenylmethyl-4-(S)-hydroxy-5-(1-(4-(3-pyridylmethyl)-2(S)-N'-(t-butylcarboxamido)-piperazinyl))-pentaneamide, reference compound] | 50 |  |  |  |  |  |  |  |  |  |  |  |  | 
2 | CC(C)(C)NC(=O)[C@@H]1CN(Cc2cc3ccccc3o2)CCN1C[C@@H](O)C[C@@H](Cc1ccccc1)C(=O)N[C@H]1c2ccccc2C[C@H]1O [Compound A, N-(2(R)-hydroxy-1(S)-indanyl)-2(R)-phenylmethyl-4-(S)-hydroxy-5-(1-(4-(2-benzo[b]furanylmethyl)-2(S)-N'-(t-butylcarboxamido)-piperazinyl))-pentaneamide] |  | 25 | approximately two-fold greater potency than Indinavir | markedly reduces inter-individual variation | substantially increase the plasma concentrations | significant inter-individual variation | greater than proportional increases in plasma concentrations | very low plasma concentrations | below the assay quantification limit | about 30 × | ~46 | about 19 × | about 18 fold | higher Compound A plasma levels
